Active and inactive are the calls of the source. The rule behind the calls is not given here.
Columns and labels:
SK-MEL-5 = assay: Antitumor activity against human SK-MEL-5 cells after 48 hrs; assay type: functional; conditions: SK-MEL-5, 48 h
HCT-15 = assay: Antitumor activity against human HCT15 cells after 48 hrs; assay type: functional; conditions: HCT-15, 48 h
[1] = Antitumor activity against human MOLT4 cells after 48 hrs; assay type: functional; conditions: MOLT-4, 48 h
SF-268 = assay: Antitumor activity against human SF268 cells after 48 hrs; assay type: functional; conditions: SF-268, 48 h
[2] = Antitumor activity against human RXF393 cells after 48 hrs; assay type: functional; conditions: RXF 393, 48 h
UO-31 = assay: Antitumor activity against human UO31 cells after 48 hrs; assay type: functional; conditions: UO-31, 48 h
KM12 = assay: Antitumor activity against human KM12 cells after 48 hrs; assay type: functional; conditions: KM12, 48 h
SK-MEL-2 = assay: Antitumor activity against human SK-MEL-2 cells after 48 hrs; assay type: functional; conditions: SK-MEL-2, 48 h
CCRF-CEM = assay: Antitumor activity against human CCRF-CEM cells after 48 hrs; assay type: functional
[3] = Antitumor activity against human SF295 cells after 48 hrs; assay type: functional; conditions: SF-295, 48 h
NCI-H226 = assay: Antitumor activity against human NCI-H226 cells after 48 hrs; assay type: functional; conditions: NCI-H226, 48 h
[4] = Antitumor activity against human NCI-ADR-RES cells after 48 hrs; assay type: functional
[5] = Antitumor activity against human LOXIMVI cells after 48 hrs; assay type: functional; conditions: LOX IMVI
U-251 = assay: Antitumor activity against human U251 cells after 48 hrs; assay type: functional; conditions: U-251, 48 h
OVCAR-4 = assay: Antitumor activity against human OVCAR4 cells after 48 hrs; assay type: functional; conditions: OVCAR-4, 48 h
[6] = Antitumor activity against human Hs578T cells after 48 hrs; assay type: functional; conditions: Hs-578T
MDA-MB-231 = assay: Antitumor activity against human MDA-MB-231 cells after 48 hrs; assay type: functional; conditions: MDA-MB-231, 48 h
SW-620 = assay: Antitumor activity against human SW620 cells after 48 hrs; assay type: functional; conditions: SW-620, 48 h
SN12C = assay: Antitumor activity against human SN12C cells after 48 hrs; assay type: functional
PC-3 = assay: Antitumor activity against human PC3 cells after 48 hrs; assay type: functional; conditions: PC-3, 48 h
[7] = Antitumor activity against human HCC2998 cells after 48 hrs; assay type: functional; conditions: HCC 2998, 48 h
SR = assay: Antitumor activity against human SR cells after 48 hrs; assay type: functional
SNB-19 = assay: Antitumor activity against human SNB19 cells after 48 hrs; assay type: functional; conditions: SNB-19, 48 h
EKVX = assay: Antitumor activity against human EKVX cells after 48 hrs; assay type: functional, cell-based
NCI-H522 = assay: Antitumor activity against human NCI-H522 cells after 48 hrs; assay type: functional; conditions: NCI-H522, 48 h
MDA-MB-468 = assay: Antitumor activity against human MDA-MB-468 cells after 48 hrs; assay type: functional; conditions: MDA-MB-468, 48 h
DU-145 = assay: Antitumor activity against human DU145 cells after 48 hrs; assay type: functional; conditions: DU-145, 48 h
[8] = Antitumor activity against human SF539 cells after 48 hrs; assay type: functional; conditions: SF-539, 48 h
A498 = assay: Antitumor activity against human A498 cells after 48 hrs; assay type: functional; conditions: A498, 48 h
UACC-62 = assay: Antitumor activity against human UACC62 cells after 48 hrs; assay type: functional; conditions: UACC-62, 48 h
OVCAR-5 = assay: Antitumor activity against human OVCAR5 cells after 48 hrs; assay type: functional; conditions: OVCAR-5, 48 h
HOP-62 = assay: Antitumor activity against human HOP62 cells after 48 hrs; assay type: functional; conditions: HOP-62, 48 h
[9] = Antitumor activity against human RPMI8226 cells after 48 hrs; assay type: functional; conditions: RPMI-8226, 48 h
A549 = assay: Antitumor activity against human A549 cells after 48 hrs; assay type: functional; conditions: A549, 48 h
786-0 = assay: Antitumor activity against human 786-0 cells after 48 hrs; assay type: functional; conditions: 786-0, 48 h
HL-60(TB) = assay: Antitumor activity against human HL-60(TB) cells after 48 hrs; assay type: functional; conditions: HL-60, 48 h
NCI-H460 = assay: Antitumor activity against human NCI-H460 cells after 48 hrs; assay type: functional; conditions: NCI-H460, 48 h
UACC-257 = assay: Antitumor activity against human UACC257 cells after 48 hrs; assay type: functional; conditions: UACC-257, 48 h
[10] = Antitumor activity against human HOP92 cells after 48 hrs; assay type: functional; conditions: HOP-92, 48 h
NCI-H322M = assay: Antitumor activity against human NCI-H322M cells after 48 hrs; assay type: functional
[11] = Antitumor activity against human COLO205 cells after 48 hrs; assay type: functional; conditions: COLO 205, 48 h
SK-OV-3 = assay: Antitumor activity against human SKOV3 cells after 48 hrs; assay type: functional; conditions: SK-OV-3, 48 h
Malme-3M = assay: Antitumor activity against human MALME-3M cells after 48 hrs; assay type: functional
NCI-H23 = assay: Antitumor activity against human NCI-H23 cells after 48 hrs; assay type: functional; conditions: NCI-H23, 48 h
HCT-116 = assay: Antitumor activity against human HCT116 cells after 48 hrs; assay type: functional; conditions: HCT-116, 48 h
CAKI-1 = assay: Antitumor activity against human Caki1 cells after 48 hrs; assay type: functional; conditions: CAKI-1, 48 h
OVCAR-8 = assay: Antitumor activity against human OVCAR8 cells after 48 hrs; assay type: functional; conditions: OVCAR-8, 48 h
MDA-MB-435 = assay: Antitumor activity against human MDA-MB-435 cells after 48 hrs; assay type: functional; conditions: MDA-MB-435, 48 h
IGROV-1 = assay: Antitumor activity against human IGROV1 cells after 48 hrs; assay type: functional; conditions: IGROV-1, 48 h
ACHN = assay: Antitumor activity against human ACHN cells after 48 hrs; assay type: functional
TK-10 = assay: Antitumor activity against human TK10 cells after 48 hrs; assay type: functional; conditions: TK-10, 48 h
MCF7 = assay: Antitumor activity against human MCF7 cells after 48 hrs; assay type: functional; conditions: MCF7, 48 h
M14 = assay: Antitumor activity against human M14 cells after 48 hrs; assay type: functional; conditions: M14, 48 h
OVCAR-3 = assay: Antitumor activity against human OVCAR3 cells after 48 hrs; assay type: functional; conditions: OVCAR-3, 48 h
SK-MEL-28 = assay: Antitumor activity against human SK-MEL-28 cells after 48 hrs; assay type: functional; conditions: SK-MEL-28, 48 h
SNB-75 = assay: Antitumor activity against human SNB75 cells after 48 hrs; assay type: functional; conditions: SNB-75, 48 h
K562 = assay: Antitumor activity against human K562 cells after 48 hrs; assay type: functional; conditions: K562, 48 h
T47D = assay: Antitumor activity against human T47D cells after 48 hrs; assay type: functional
HT-29 = assay: Antitumor activity against human HT-29 cells after 48 hrs; assay type: functional; conditions: HT-29, 48 h
[12] = Antitumor activity against human BT549 cells after 48 hrs; assay type: functional; conditions: BT-549, 48 h

## COc1cc(/C(C#N)=C/c2ccc3ccccc3n2)cc(OC)c1OC
SK-MEL-5
  GI50: 243 nM
HCT-15
  GI50: 319 nM
[1]
  GI50: 488 nM
SF-268
  GI50: 835 nM
[2]
  GI50: 271 nM
UO-31
  GI50: 762 nM
KM12
  GI50: 350 nM
SK-MEL-2
  GI50: 483 nM
CCRF-CEM
  GI50: 248 nM
[3]
  GI50: 277 nM
NCI-H226
  GI50: 4780 nM
[4]
  GI50: 112 nM
[5]
  GI50: 766 nM
U-251
  GI50: 355 nM
OVCAR-4
  GI50: 1430 nM
[6]
  GI50: 689 nM
MDA-MB-231
  GI50: 943 nM
SW-620
  GI50: 164 nM
SN12C
  GI50: 627 nM
PC-3
  GI50: 348 nM
[7]
  GI50: 610 nM
SR
  GI50: inactive
SNB-19
  GI50: 578 nM
EKVX
  GI50: inactive
NCI-H522
  GI50: 37.2 nM
MDA-MB-468
  GI50: 243 nM
DU-145
  GI50: 446 nM
[8]
  GI50: 197 nM
A498
  GI50: 295 nM
UACC-62
  GI50: 92 nM
OVCAR-5
  GI50: 580 nM
HOP-62
  GI50: 567 nM
[9]
  GI50: 297 nM
A549
  GI50: 375 nM
786-0
  GI50: 445 nM
HL-60(TB)
  GI50: 223 nM
NCI-H460
  GI50: 361 nM
UACC-257
  GI50: 761 nM
[10]
  GI50: 736 nM
NCI-H322M
  GI50: 718 nM
[11]
  GI50: 198 nM
SK-OV-3
  GI50: 524 nM
Malme-3M
  GI50: inactive
NCI-H23
  GI50: 751 nM
HCT-116
  GI50: 234 nM
CAKI-1
  GI50: 68 nM
OVCAR-8
  GI50: 446 nM
MDA-MB-435
  GI50: 33 nM
IGROV-1
  GI50: 846 nM
ACHN
  GI50: 1040 nM
TK-10
  GI50: 4690 nM
MCF7
  GI50: 275 nM
M14
  GI50: 173 nM
OVCAR-3
  GI50: 163 nM
SK-MEL-28
  GI50: 518 nM
SNB-75
  GI50: 182 nM
K562
  GI50: 80 nM
T47D
  GI50: 4760 nM
HT-29
  GI50: 240 nM
[12]
  GI50: 315 nM
